Laboratory results: patent US7763287B2, “Extract of Cercis chinensis having anti-oxidant activity and anti-aging activity, and cosmetical composition containing the extract for anti-oxidation, skin-aging protection and wrinkle improvement” (Hankook Pharm. Co., Inc., priority 2002, dated 2010)

Experiments:
HEK-N/F cells = assay: Protection of cells from oxidative damage induced by t-butylhydroperoxide; format: cell-based, human; conditions: 1.5 mM t-butylhydroperoxide 3 hours; for TBARS (pmol/mg protein): compound 50.0 µg/ml
Description: t-butylhydroperoxide is metabolized into a free radical intermediate as it comes in a cell, so that it causes lipid peroxidation, resulting in cell damage. This phenomenon is similar to that caused by oxidataive stress accumulated in cells and tissues. […] HEK-N/F, an epidermal cell line of a newborn baby, was treated with 1.5 mM of t-butylhydroxyperoxide for 3 hours.

[1] = Superoxide radical scavenging activity (xanthine/xanthine oxidase, NBT); format: biochemical; conditions: Table 6
Description: Superoxide radical (O^2−) itself has a little reactivity, but is easily changed into H2O2 that generates hydroxyl radical having strong reactivity or is reacted with nitric oxide (NO.) to generate peroxy nitrite (ONOO^−) having strong reactivity, too. Thus, it might be a reason for oxidation of SH-group, nitration of protein tyrosine, lipid peroxidation and DNA damage. […] Basically, measurement of superoxide radical scavenging activity was performed by investigating the activity of superoxide dismutase (SOD), an enzyme scavenging superoxide by dismutation of the same. In the present invention, an activity of a sample to inhibit superoxide production by the enzyme reaction of xanthine/xanthine oxidase and its another activity to inhibit reaction (NBT+20^2−→NBTH2+2O2) generating formazan by reduction of nitro blue tetrazolium (referred as ‘NBT’ hereinafter) were measured. Particularly, wells of a 96-well plate were supplemented with 50 μl of 4 mM xanthine (Sigma), 50 μl of […] NBT (Sigma), 50 μl of 50 mM phosphate buffer (pH 7.8, 1 mM EDTA) and 10 μl of each sample, into which 40 μl of xanthine oxidase was added to induce a reaction. After the reaction was completed, each reaction solution was collected as scheduled, and OD550 was measured with an ELISA reader. […] Superoxide Radical Scavenging Activity (%)=(Acontrol−Asample)/(Acontrol−Ablank)×100 <Mathematical Formula 4> […]

[2] = DPPH radical scavenging activity; format: biochemical; conditions: for DPPH radical scavenging activity IC50: Table 3
Description: In order to extract an effective ingredient having an anti-oxidant activity from Cercis chinensis, an experiment was performed following the procedure represented in a schematic diagram of FIG. 1. Particularly, 1 kg of leaves and stems of Cercis chinensis, dried in shadow, were grinded to powder using a pulverizer, which was extracted by ethanol (EtOH) at room temperature twice at intervals of two weeks. For the extraction, ethanol solutions were prepared by adding ethanol gradually, 10% at a time, from 0% to 100%. The prepared ethanol solutions were used for the extraction. […] But, it looses absorbance when being scavenged. Based on that point, an anti-oxidant activity can be measured using DPPH. […] Then, each solution was distributed into a 96 well plate by 10 μl each, into which 190 μl of DPPH(Sigma, St. Louis, Mo, USA) solution whose ethanol concentration was 2×10^−4 M/ml was added. The plate was just left at room temperature for 30 minutes. Finally, OD517 was measured at 517 nm. For a control, DMSO was added instead of the sample, and changes of optical density were investigated. […] DDPH Radical Scavenging Activity (%)=(Acontrol−Asample)/(Acontrol)×100 <Mathematica Formula 1>
Acontrol: Optical density of control group (sample was not added),
Asample: Optical density of experimental group (sample was added).
In order to identify a fraction having an anti oxidant activity among hexane Fr, EtOAc Fr and BuOH Fr obtained above, a DPPH radical scavenging activity was measured using each extract of each fraction following the method used above. At this time, vitamin E, known to have high DPPH radical scavenging activity, was used as a comparing group.
At this time, BHA (tert-butyl-4 hydroxyanisole) and α-tocopherol, synthetic anti-oxidant agents, were used as positive controls.

[3] = Hydroxyl radical scavenging activity (deoxyribose/TBA, method of Halliwell); format: biochemical; conditions: for Hydroxyl radical scavenging activity (%): 10 μg of sample, total volume 1 ml
Description: Hydroxyl radical (HO.) is generated by the reaction of a metal ion or a superoxide radical. Owing to its strong reactivity, hydroxyl radical causes oxidative damages to DNA, protein and lipid in vivo. Nitric oxide (NO.) is reacted with a superoxide radical to generate a peroxy nitrite (ONOO—), also having strong reactivity. […] Particularly, each compound was mixed with 10 μg of a sample dissolved in DMSO, phosphate buffer (20 mM, pH 7.4) 5.6 mM deoxyribose, 0.1 mM FeCl3, 1 mM H2O2 and 0.1 mM ascorbic acid, making total volume 1 ml, which was then reacted at 37° C. for 60 minutes. 250 μl of 20% TCA and 250 μl of 1% TBA solution (dissolved in 50 mM NaOH) were added to the reaction solution, followed by thermal reaction at 95° C. for 5 minutes. After completing the reaction, OD532 was measured. Hydroxyl radical scavenging activity was calculated by the below
<Mathematical Formula 3>. BHA and α-tocopherol were used for a positive control. Hydroxyl Radical Scavenging Activity (%)=(Acontrol−Asample)/(Acontrol−Ablank)×100 <Mathematical Formula 3>
Acontrol: Optical density of control group well (sample was not added),
Asample: Optical density of experimental group well (sample was added),
Ablank: Optical density of well not added with sample, TCA and TBA

[4] = Nitric oxide scavenging activity; format: biochemical; parameters: Nitric oxide scavenging activity (%): concentration or dose not given beside the values
rat brain homogenates = assay: Lipid peroxidation inhibitory activity (Fe2+/ascorbic acid, TBA method); conditions: Table 4

| Compound | DPPH radical scavenging activity IC50 [2] [µg/mL] | Lipid Peroxidation Inhibitory Activity IC50 (rat brain homogenates) [µg/mL] | DPPH radical scavenging IC50 ([2]; fractions of the 60% ethanol extract) [µg/mL] | Cell survival rate (%) (HEK-N/F cells) | TBARS (pmol/mg protein) (HEK-N/F cells) | Superoxide radical scavenging activity IC50 [1] [µg/mL] | DPPH radical scavenging activity (in words) [2] | Hydroxyl radical scavenging activity (%) [3] [%] | Nitric oxide scavenging activity (%) [4] [%] | Nitric oxide scavenging activity (in words) [4] | Hydroxyl radical scavenging activity (in words) [3] |
| --- | --- | --- | --- | --- | --- | --- | --- | --- | --- | --- | --- |
| Oc1cc(O)c2c(c1)O[C@H](c1ccc(O)c(O)c1)[C@@H](O)C2 [Chemical Formula 16, (+)-catechin] | 15.6 ± 0.8 | 4.71 ± 0.26 |  | 24.5 ± 1.9 | 1912.4 ± 112.0 | 16.5 ± 2.0 | strong radical scavenging activity | 12.7 | 16.9 ± 1.1 | comparatively high nitric oxide scavenging activity |  |
| C[C@@H]1O[C@@H](Oc2c(-c3ccc(O)c(O)c3)oc3cc(O)cc(O)c3c2=O)[C@H](O)[C@H](O)[C@H]1O [Chemical Formula 11, quercitrin] |  |  |  |  | 2217.2 ± 200.3 |  |  |  |  |  |  |
| O=C(O)/C=C/c1ccc(O)c(O)c1 [Caffeic acid, caffeic acid, reference compound] |  |  |  |  |  | 11.0 ± 1.8 |  |  |  |  |  |
| C[C@@H]1O[C@@H](Oc2c(-c3ccc(O)cc3)oc3cc(O)cc(O)c3c2=O)[C@H](O)[C@H](O)[C@H]1O [Chemical Formula 10, afzelin] |  |  |  | 16.8 ± 1.3 | 3295.1 ± 304.5 |  |  |  |  |  |  |
| COc1cc(-c2oc3cc(O)cc(O)c3c(=O)c2O[C@@H]2O[C@H](CO[C@@H]3O[C@@H](C)[C@H](O)[C@@H](O)[C@H]3O)[C@@H](O)[C@H](O)[C@H]2O)cc(OC)c1O [Chemical Formula 14, syringetin-3-O-rutinoside] | 35.1 ± 1.5 | 19.0 ± 1.52 |  | 20.0 ± 2.6 | 2928.1 ± 209.9 | 45.2 ± 2.2 |  | 10.2 | 6.0 ± 0.8 |  |  |
| CC1OC(Oc2c(-c3cc(O)c(O)c(O)c3)oc3cc(O)cc(O)c3c2=O)C(OC(=O)c2cc(O)c(O)c(O)c2)C(O)C1O [Chemical Formula 13, myricetin-3-O-(2″-O-galloyl)-α-L-rhamnopyranoside] | 8.6 ± 0.7 | 4.73 ± 0.41 |  | 45.1 ± 3.6 | 1019.8 ± 154.0 | 13.2 ± 2.5 |  | 45.4 | 23.0 ± 0.6 |  | remarkably higher hydroxyl radical scavenging activities |
| COc1cc(-c2oc3cc(O)cc(O)c3c(=O)c2O[C@@H]2O[C@H](CO[C@@H]3O[C@@H](C)[C@H](O)[C@@H](O)[C@H]3O)[C@@H](O)[C@H](O)[C@H]2OC(=O)c2cc(O)c(O)c(O)c2)cc(OC)c1O [Chemical Formula 15, syringetin-3-O-(2″-O-galloyl)-rutinoside] | 29.2 ± 1.8 | 10.10 ± 1.02 |  |  |  | 37.1 ± 2.0 |  | 16.4 | 14.1 ± 1.4 |  |  |
| Cc1c(C)c2c(c(C)c1O)CC[C@@](C)(CCC[C@H](C)CCC[C@H](C)CCCC(C)C)O2 [α-tocopherol, reference compound] | 25.4 ± 0.9 | 6.61 ± 0.95 |  |  |  |  |  | 0.8 |  |  |  |
| O=C1C[C@@H](c2ccc(O)cc2)Oc2cc(O)ccc21 [Chemical Formula 3, liquiritigenin] | >50 | 6.05 ± 0.99 |  | 12.1 ± 1.0 | 8255.1 ± 576.4 | 59.2 ± 3.8 |  | 3.2 |  |  |  |

More lines, main results first:

| DPPH radical scavenging activity IC50 [2] [µg/mL] | Lipid Peroxidation Inhibitory Activity IC50 (rat brain homogenates) [µg/mL] | DPPH radical scavenging IC50 ([2]; fractions of the 60% ethanol extract) [µg/mL] | Compound | Cell survival rate (%) (HEK-N/F cells) | TBARS (pmol/mg protein) (HEK-N/F cells) | Superoxide radical scavenging activity IC50 [1] [µg/mL] | DPPH radical scavenging activity (in words) [2] | Hydroxyl radical scavenging activity (%) [3] [%] | Nitric oxide scavenging activity (%) [4] [%] | Nitric oxide scavenging activity (in words) [4] | Hydroxyl radical scavenging activity (in words) [3] |
| --- | --- | --- | --- | --- | --- | --- | --- | --- | --- | --- | --- |
| 7.0 ± 1.0 | 7.01 ± 0.62 |  | CCOC(=O)c1cc(O)c(O)c(O)c1 [Chemical Formula 8, ethyl gallate] | 43.1±4.1 | 1115.6 ± 96.2 | 15.8 ± 1.6 |  | 44.0 | 33.4 ± 2.1 |  | remarkably higher hydroxyl radical scavenging activities |
| 5.1 ± 0.4 | 6.80 ± 0.63 |  | O=C(O)c1cc(O)c(O)c(O)c1 [Chemical Formula 6, gallic acid] | 41.5±3.1 | 1245.7 ± 112.4 |  |  | 33.6 | 25.0 ± 2.0 |  |  |
| >50 | 12.81 ± 1.86 |  | COc1ccc(/C=C/C(=O)c2ccc(O)cc2O)cc1 [Chemical Formula 2, 2′,4′-dihydroxy-4-methoxychalcone] | 16.2 ± 3.2 | 3449.7 ± 305.8 | 49.8 ± 3.1 |  | 4.5 |  |  |  |
| 6.8 ± 0.5 | 2.90 ± 0.06 |  | (−)-epicatechin-3-O-gallate [Chemical Formula 17] | 49.4 ± 6.4 | 1007.3 ± 95.2 | 11.9 ± 2.1 |  | 39.9 | 25.4 ± 1.2 | comparatively high nitric oxide scavenging activity | remarkably higher hydroxyl radical scavenging activities |
|  |  | 24.9 | vitamin E [reference compound] |  |  |  |  |  |  |  |  |
|  | 3.33 ± 0.50 |  | O=C(/C=C/c1ccc(O)cc1)c1ccc(O)cc1O [Chemical Formula 1, isoliquiritigenin] | 13.9 ± 12.6 | 5118.1 ± 410.5 |  |  |  |  |  |  |
| 15.3 ± 0.6 | 0.11 ± 0.02 |  | tert-butyl-4-hydroxyanisole [BHA, reference compound] |  |  | 48.8 ± 2.5 |  | 15.6 |  |  |  |
|  | 0.89 ± 0.10 |  | Oc1ccc(C=Cc2cc(O)cc(O)c2)cc1 [Chemical Formula 4, resveratrol] | 18.1 ± 1.6 | 2792.4 ± 259.1 |  |  |  |  |  |  |
